# Source: patent publication US20060111305A1, “Metabolites of certain [1,4]diazepino[6,7,1-ij]quinoline derivatives and methods of preparation and use thereof” (Wyeth, priority 2004, published 2006)
# What was measured:
# [1] = Metabolite profiles of DCDQ in human plasma and urine by LC/MS (Table 33); type: in vivo, healthy human subjects; design: key to Matrix (in which DCDQ / metabolite was characterized by LC/MS): P = plasma; U = urine; settings: for Matrix (in which DCDQ / metabolite was characterized by LC/MS): human plasma and urine, healthy subjects receiving DCDQ
# Protocol: Drug administration and specimen collection were performed in a randomized, double-blinded, placebo-controlled, ascending single dose study of the safety, tolerability, pharmacokinetics, and pharmacodynamics of DCDQ administered orally to healthy subjects and subjects with schizophrenia and schizoaffective disorder. The specimens were stored at approximately −70° C. until analysis for metabolite profiles and for ratios of carbamoyl glucuronide (M6) to DCDQ.
# Two subjects with medium and high exposure to DCDQ in the 25 mg multiple ascending dose study were also analyzed by LC/MS for metabolite profiles. The 8 hr plasma samples collected on day 1 and day 14 from subjects 9 and 41 were processed and analyzed as described below. No internal standard was added to the samples analyzed for metabolite profiles.
# LC/MS System 1 was used for analysis of plasma and urine samples for metabolite characterization. The HPLC equipment used with this LC/MS System consisted of an Agilent Model 1100 HPLC system (Agilent Technologies, Palo Alto, Calif.) including an autosampler, binary pump and diode array UV detector. The UV detector was set to monitor 210 to 350 nm. The HPLC mobile phase consisted of 10 mM ammonium acetate, pH 4.5 (A) and methanol (B), and was delivered at 0.2 mL/min. The linear mobile phase gradient (HPLC Gradient 1) is shown below. During LC/MS sample analysis, up to 6 min of the initial flow was diverted away from the mass spectrometer prior to evaluation of metabolites.
# The mass spectrometer used for metabolite characterization with LC/MS System 1 was a Finnigan LCQ-Deca ion trap mass spectrometer (Thermo Electron, San Jose, Calif.). This mass spectrometer was equipped with an electrospray ionization (ESI) interface and operated in the positive ionization mode. Settings for the LCQ mass spectrometer are listed below.
# LC/MS System 2 was used to provide additional MS/MS data for characterization of DCDQ metabolites in urine. The HPLC equipment used with LC/MS System 2 consisted of a Waters model 2695 HPLC system (Waters Corp., Milford, Mass.). It was equipped with a built-in autosampler and a model 996 diode array UV detector. The UV detector was set to monitor 210-400 nm. The HPLC column, mobile phases, flow rate, diversion of flow away from the mass spectrometer and gradient were as described above for LC/MS System 1. The column temperature was 25° C.
# The mass spectrometer used for metabolite characterization with LC/MS System 2 was a Micromass Quattro Micro triple quadrupole mass spectrometer (Waters Corp.). This mass spectrometer was equipped with an electrospray interface and operated in the positive ionization mode. Settings for this mass spectrometer are listed below.
# [2] = test system: cytochrome P450 (NADPH-dependent metabolism); test: Incubation of [14C]DCDQ with human liver microsomes (Km values, metabolite formation); type: in vitro ADME; settings: pH 7.4; 0.5 mg/mL human liver microsomes, [14C]DCDQ 0.5-100 μM, NADPH regenerating system, 20 min
# Protocol: (§1) [^14C]DCDQ was mixed with non-radiolabeled DCDQ (1:3 or 1:5) in the incubations. Microsomal incubations consisted of [^14C]DCDQ, magnesium chloride (10 mM) and liver microsomes incubated in 0.5 mL of 0.1 M potassium phosphate buffer, pH 7.4. [^14C]DCDQ (20 μL) in water was added to the incubation tubes containing buffer, magnesium chloride solution and microsomes. After mixing, the tubes were pre-incubated for 2 minutes in a shaking water bath at 37° C. The reactions were initiated by the addition of UDPGA or the NADPH regenerating system. UDPGA was added to incubations as a 50 μL aliquot of a 20 mM solution in water, to give a final concentration of 2 mM. An NADPH regenerating system (30 μL) was added to incubations to evaluate CYP450-mediated metabolism. The NADPH regenerating system consisted of glucose-6-phosphate (2 mg/mL), glucose-6-phosphate dehydrogenase (0.8 units/mL) and NADP^+ (2 mg/mL). Control incubations were conducted under the same conditions, but without the NADPH generating system, UDPGA or microsomes. All incubations were performed in duplicate. Incubations were stopped by the addition of 0.5 mL ice-cold methanol. Samples were vortex-mixed. Denatured proteins were separated by centrifugation at 4300 rpm and 4° C. for 10 minutes (Model T21 super centrifuge, Sorvall). The protein pellets were extracted with 0.5 mL of methanol. The supernatant was combined for each sample, mixed and evaporated to a volume of about 0.3 mL under a nitrogen stream in a Zymark TurboVap LV evaporator (Caliper Life Science, Hopkinton, Mass.). The concentrated sample was centrifuged and aliquots were radioassayed and analyzed by HPLC. This method recovered an average of 92.1% of the radioactivity from the reaction mixture.
# (§2) Initial rate conditions were determined for DCDQ metabolism in incubations with human liver microsomes in the presence of NADPH or UDPGA. Incubations for the time course study contained 20 μM of [^14C]DCDQ and 0.5 mg/mL of microsomal proteins, and were incubated at 37° C. with mild shaking for 0, 5, 10, 20, 30, 40, 50 and 60 minutes. The protein dependence study was conducted with 20 μM of [^14C]DCDQ incubated for 20 minutes with 0, 0.1, 0.25, 0.5, 0.75 and 1.0 mg/mL of microsomal proteins.
# (§3) The Km values were determined with 0.5 mg/mL of human liver microsomes incubated with [^14C]DCDQ for 20 minutes with the NADPH regenerating system or for 10 minutes with UDPGA. [^14C]DCDQ concentrations used were 0.5,1, 5, 10, 25, 50, 75 and 100 μM.
# (§4) To evaluate species differences in cytochrome P450- and UGT-mediated metabolism, [^14C]DCDQ was incubated for 20 minutes with 0.5 mg/mL liver microsomal proteins from mice, rats, dogs or humans in the presence of the NADPH regenerating system or UDPGA. The assay conditions were the same as described above, and DCDQ concentrations were 12 μM and 56 μM for cytochrome P450- and UGT-mediated metabolism, respectively.
# (§5) A Waters model 2690 HPLC system (Waters Corp., Milford, Mass.) with a built-in autosampler was used for analysis. Separations were accomplished on a Phenomenex Luna C18(2) column (2×150 mm, 5 μm) (Phenomenex, Torrance, Calif.) coupled with a filter (4×2 mm) cartridge. A variable wavelength UV detector set to monitor 250 nm and Flo-One β Model A525 radioactivity flow detector (Perkin Elmer) with a 250 μL LQTR flow cell were used for data acquisition. The flow rate of Ultima Flow M scintillation fluid was 1 mL/min, providing a mixing ratio of scintillation cocktail to mobile phase of 5:1. The sample chamber in the autosampler was maintained at 4° C., while the column was at ambient temperature of about 20° C. The mobile phase consisted of 10 mM ammonium acetate, pH 4.5 (A) and methanol (B) and was delivered at 0.2 mL/min. The linear gradient conditions were as follows: […]
# [3] = as above; type: in vitro ADME; settings: for metabolite detected in microsomal incubation: human
# Protocol: as §1, §2, §3, §4, §5
# [4] = NADPH regenerating system, 12 μM DCDQ, 20 min
Matrix (in which DCDQ / metabolite was characterized by LC/MS) [1],Km at 20 min [2] [µM],"metabolite detected in microsomal incubation [3, 4]","relative abundance in human plasma ([1]; all dose groups, single and multiple dose studies)",relative abundance in human urine ([1]; in vivo),"amount of metabolite detected ([3]; human liver microsomes, DCDQ 20 μM, both NADPH and UDPGA)","metabolite detected in microsomal incubation ([3]; UDPGA, 56 μM DCDQ)",SMILES
P,36.2,detected,–,–,–,–,"[O-][N+]12CCN=Cc3cccc(c31)[C@H]1CCC[C@H]1C2 (some centres unmarked) [Metabolite M5, DCDQ imine N-oxide]"
"P, U",10.8,detected,–,–,–,–,"OC1CN2C[C@@H]3CCC[C@@H]3c3cccc(c32)CN1 (some centres unmarked) [Metabolite M1, hydroxy DCDQ]"
–,8.9 to 13.8,detected,–,–,–,–,"OC1[C@@H]2CCC[C@@H]2c2cccc3c2N1CCNC3 (some centres unmarked) [Metabolite M2, hydroxy DCDQ]"

# Continued, compound first:
SMILES,Matrix (in which DCDQ / metabolite was characterized by LC/MS) [1],Km at 20 min [2] [µM],"metabolite detected in microsomal incubation [3, 4]","relative abundance in human plasma ([1]; all dose groups, single and multiple dose studies)",relative abundance in human urine ([1]; in vivo),"amount of metabolite detected ([3]; human liver microsomes, DCDQ 20 μM, both NADPH and UDPGA)","metabolite detected in microsomal incubation ([3]; UDPGA, 56 μM DCDQ)"
"O=C(O)[C@H]1O[C@@H](OC(=O)N2CCN3C[C@@H]4CCC[C@@H]4c4cccc(c43)C2)[C@H](O)[C@@H](O)[C@@H]1O [Metabolite M6, carbamoyl glucuronide of DCDQ]","P, U",–,–,predominant drug-related component,predominant drug-related component,only minor amounts,detected
"c1cc2c3c(c1)[C@H]1CCC[C@H]1CN3CCNC2 [DCDQ, (9aR,12aS)-4,5,6,7,9,9a,10,11,12,12a-decahydro-cyclopenta[c][1,4]diazepine[6,7,1-ij]quinoline, reference compound]","P, U",–,–,–,–,–,–
